From patent publication US8273775B2, “Non-steroidal brassinosteroid mimetic” (priority 2006, dated 2012)

System: gene expression in Col-0 seedling shoots
Experiment: Microarray analysis (ATH1 Affymetrix) after BL or abrasin treatment
Type: in vivo, Arabidopsis
Details: 120 min
Description: FIG. 14: Clustering of gene expression profiles by QT-clust analysis. Clusters illustrating the major patterns of the data sets. Points: BIK-30: 30 μM abrasin 30 min; BL-30: 1 μM brassinolide 30 min; DMSO-30: control DMSO 30 min; BIK-120: 30 μM abrasin 120 min; BL-120: 1 μM brassinolide 120 min; DMSO-120: control DMSO 120 min.
Col-0 seeds were germinated vertically on ½ MS medium for 7 days under 16 h light/8 h dark cycles. The seedlings were overlaid with liquid ½ MS medium containing 1 μM brassinolide (BL, Fuji Chemical Industries, Ltd., Toyama, Japan), 30 μM abrasin (BIK, ChemBridge Corporation) and DMSO and treated for 30 and 120 min. The shoot parts were collected for RNA isolation. All sampling points were performed in three independent experiments. RNA was extracted using RNeasy kit (Qiagene). […] total RNA per array was used to hybridise the ATH1 Affymetrix Arabidopsis arrays according to standard procedure. The overrepresentation analyses were performed using BiNGO software (Maere et al., 2005).
We performed a microarray analysis using the Arabidopsis whole genome chip (Affymetix) to determine whether abrasin activated the expression of BR-inducible genes at transcriptional level. Wild-type Col-0 seedlings were exposed to 1 μM BL, 30 μM ABRASIN and DMSO (mock-treatment) for two time points (30 min and 120 min) and the shoot parts were collected for RNA isolation. The analysis of the variance of the normalized gene expression data took in account the variability parameters affecting the expression level: type of hormone treatment, duration of treatment and the interaction between these two.

## CC(C)[C@H](C)[C@@H](O)[C@H](O)[C@@H](C)[C@H]1CC[C@H]2[C@@H]3COC(=O)[C@H]4C[C@H](O)[C@H](O)C[C@]4(C)[C@H]3CC[C@]12C [BL, brassinolide, reference compound]
  Fold-change AT4G16780 homeobox-leucine zipper protein 4 (HAT4)/HD-ZIP protein: 0.51
  Fold-change AT4G17250 expressed protein: 1.82
  Fold-change AT4G17460 homeobox-leucine zipper protein 1 (HAT1)/HD-ZIP protein 1: 0.19
  Fold-change AT4G21510 F-box family protein: 2.09
  Fold-change AT4G23030 MATE efflux protein-related: 2.20
  Fold-change AT4G23070 rhomboid family protein: 2.03
  Fold-change AT4G23810 WRKY family transcription factor: 0.55
  Fold-change AT4G24160 hydrolase, alpha/beta fold family protein: 1.14
  Fold-change AT4G25620 hydroxyproline-rich glycoprotein family protein: 0.86
  Fold-change AT4G25780 pathogenesis-related protein: 0.26
  Fold-change AT4G27970 C4-dicarboxylate transporter/malic acid transport family protein: 1.28
  Fold-change AT4G28240 wound-responsive protein-related: 0.41
  Fold-change AT4G28490 leucine-rich repeat transmembrane protein kinase, putative: 0.78
  Fold-change AT4G28703 expressed protein: 0.89
  Fold-change AT4G28780 GDSL-motif lipase/hydrolase family protein: 2.29
  Fold-change AT4G29070 expressed protein: 0.74
  Fold-change AT4G30080 transcriptional factor B3 family protein: 0.49
  Fold-change AT4G31020 expressed protein: 0.67
  Fold-change AT4G32280 auxin-responsive AUX/IAA family protein (IAA29): 0.22
  Fold-change AT4G33050 calmodulin-binding family protein: 0.57
  Fold-change AT4G33700 CBS domain-containing protein: 0.51
  Fold-change AT4G34610 homeodomain-containing protein: 0.37
  Fold-change AT4G36110 auxin-responsive protein: 7.86
  Fold-change AT4G36780 brassinosteroid signalling positive regulator-related: 0.09
  Fold-change AT4G37240 expressed protein: 2.33
  Fold-change AT4G37290 expressed protein: 0.40
  Fold-change AT4G37590 phototropic-responsive NPH3 family protein: 0.53
  Fold-change AT4G38840 auxin-responsive protein (SAUR14): 2.53
  Fold-change AT4G38850 auxin-responsive protein (SAUR-AC1): 3.03
  Fold-change AT4G38860 auxin-responsive protein (SAUR16): 3.40
  Fold-change AT4G39400 brassinosteroid insensitive 1 (BRI1): 0.57
  Fold-change AT5G02020 expressed protein: 0.96
  Fold-change AT5G05690 cytochrome P450 90A1 (CYP90A1) (CYP90) (CPD): 0.41
  Fold-change AT5G07690 myb family transcription factor (MYB29): 0.40
  Fold-change AT5G08130 basic helix-loop-helix (bHLH) family protein (BIM2): 0.42
  Fold-change AT5G12050 expressed protein: 0.34
  Fold-change AT5G13180 no apical meristem (NAM) family protein: 0.50
  Fold-change AT5G13740 sugar transporter family protein: 0.36
  Fold-change AT5G14730 expressed protein: 0.55
  Fold-change AT5G16200 50S ribosomal protein-related: 0.20
  Fold-change AT5G16980 NADP-dependent oxidoreductase: 1.26
  Fold-change AT5G18750 DNAJ heat shock N-terminal domain-containing protein: 0.56
  Fold-change AT5G19200 short-chain dehydrogenase/reductase (SDR) family protein: 2.47
  Fold-change AT5G19340 expressed protein: 0.39
  Fold-change AT5G24030 C4-dicarboxylate transporter/malic acid transport family protein: 1.90
  Fold-change AT5G24660 expressed protein: 2.26
  Fold-change AT5G25240 expressed protein: 3.69
  Fold-change AT5G25930 leucine-rich repeat family protein: 0.63
  Fold-change AT5G27350 sugar-porter family protein 1 (SFP1): 2.04
  Fold-change AT5G27670 histone H2A: 0.50
  Fold-change AT5G38310 expressed protein: 0.93
  Fold-change AT5G38990; AT5G39000 [AT5G38990, protein kinase family protein: 0.74
  Fold-change AT5G39050 transferase family protein: 0.62
  Fold-change AT5G39610 no apical meristem (NAM) family protein: 0.22
  Fold-change AT5G39970 expressed protein: 0.99
  Fold-change AT5G42830 transferase family protein: 0.62
  Fold-change AT5G47370 homeobox-leucine zipper protein 2 (HAT2): 0.87
  Fold-change AT5G48070 putative xyloglucan endotransglycosylase/hydrolase: 1.24
  Fold-change AT5G48540 33 kDa secretory protein-related: 0.55
  Fold-change AT5G51550 phosphate-responsive 1 family protein: 0.37
  Fold-change AT5G54490 calcium-binding EF-hand protein, putative: 1.75
  Fold-change AT5G54860 integral membrane transporter family protein: 0.82
  Fold-change AT5G55970 zinc finger (C3HC4-type RING finger) family protein: 1.82
  Fold-change AT5G56980 expressed protein: 0.20
  Fold-change AT5G57190 phosphatidylserine decarboxylase: 0.60
  Fold-change AT5G57780 expressed protein: 0.12
  Fold-change AT5G59080 expressed protein: 0.53
  Fold-change AT5G60200 Dof-type zinc finger domain-containing protein: 1.67
  Fold-change AT5G60270 lectin protein kinase family protein: 1.82
  Fold-change AT5G60630 expressed protein: 1.15
  Fold-change AT5G61600 encodes a member of the ERF (ethylene response factor): 2.06
  Fold-change AT5G62360 invertase/pectin methylesterase inhibitor family protein: 0.45
  Fold-change AT5G65310 homeobox-leucine zipper protein 5 (HB-5)/HD-ZIP transcription factor 5: 0.27
  Fold-change AT5G66420 expressed protein: 0.43
  Fold-change AT5G66590 allergen V5/Tpx-1-related family protein: 0.58
  Fold-change AT5G67450 zinc finger (C2H2 type) protein 1 (AZF1): 0.89
245479_at, Cluster 6
  Fold-change of gene AT4G16140 (proline-rich family protein): 0.75
245543_at, Cluster 7
  Fold-change of gene AT4G15260 (UDP-glucoronosyl/UDP-glucosyl transferase family protein): 0.67
245885_at, Cluster 5
  Fold-change of gene AT5G09440 (phosphate-responsive protein, putative): 0.13
246389_at, Cluster 10
  Fold-change of gene AT1G77380 (amino acid carrier): 0.40
246516_at, Cluster 5
  Fold-change of gene AT5G15740 (expressed protein): 0.69
247177_at, Cluster 5
  Fold-change of gene AT5G65300 (expressed protein): 0.36
247205_at, Cluster 10
  Fold-change of gene AT5G64890 (expressed protein): 0.85
247351_at, Cluster 9
  Fold-change of gene AT5G63790 (no apical meristem (NAM) family protein): 0.27
247444_at, Cluster 7
  Fold-change of gene AT5G62630 (expressed protein): 1.26
247601_at, Cluster 10
  Fold-change of gene AT5G60850 (Dof-type zinc finger domain-containing protein): 1.10
247704_at, Cluster 9
  Fold-change of gene AT5G59510 (expressed protein): 0.13
247774_at, Cluster 5
  Fold-change of gene AT5G58660 (oxidoreductase. 2OG-Fe(II) oxygenase family protein): 2.85
248190_at, Cluster 5
  Fold-change of gene AT5G54120 (expressed protein): 0.94
248191_at, Cluster 5
  Fold-change of gene AT5G54130 (calcium-binding EF hand family protein): 0.88
248282_at, Cluster 6
  Fold-change of gene AT5G52900 (expressed protein): 0.50
248646_at, Cluster 9
  Fold-change of gene AT5G49100 (expressed protein): 0.38
250012_x_at, Cluster 6
  Fold-change of gene AT5G18060 (auxin-responsive protein): 0.28
250493_at, Cluster 9
  Fold-change of gene AT5G09800 (U-box domain-containing protein): 0.30
250537_at, Cluster 8
  Fold-change of gene AT5G08565 (expressed protein): 0.78
250907_at, Cluster 5
  Fold-change of gene AT5G03670 (expressed protein): 0.37
251072_at, Cluster 5
  Fold-change of gene AT5G01740 (expressed protein): 0.47
251176_at, Cluster 10
  Fold-change of gene AT3G63380 (calcium-transporting ATPase): 0.10
251342_at, Cluster 9
  Fold-change of gene AT3G60690 (auxin-responsive family protein): 0.27
252586_at, Cluster 10
  Fold-change of gene AT3G45610 (Dof-type zinc finger domain): 1.05
252646_at, Cluster 5
  Fold-change of gene AT3G44610 (protein kinase family protein): 1.03
253255_at, Cluster 6
  Fold-change of gene AT4G34760 (auxin-responsive family protein): 0.62
253281_at, Cluster 7
  Fold-change of gene AT4G34138 (UDP-glucoronosyl/UDP-glucosyl transferase family protein): 1.74
253483_at, Cluster 5
  Fold-change of gene AT4G31910 (transferase family protein): 0.78
253617_at, Cluster 5
  Fold-change of gene AT4G30410 (expressed protein): 0.45
253629_at, Cluster 5
  Fold-change of gene AT4G30450 (glycine-rich protein): 0.59
253999_at, Cluster 9
  Fold-change of gene AT4G26200 (1-aminocyclopropane-1-carboxylate synthase): 0.11
255403_at, Cluster 6
  Fold-change of gene AT4G03400 (auxin-responsive GH3 family protein): 0.48
255443_at, Cluster 7
  Fold-change of gene AT4G02700 (sulfate transporter): 1.20
255926_at, Cluster 8
  Fold-change of gene AT1G22190 (AP2 domain-containing transcription factor): 0.89
256528_at, Cluster 6
  Fold-change of gene AT1G66140 (zinc finger (C2H2 type) family protein): 0.46
256762_at, Cluster 8
  Fold-change of gene AT3G25655 (expressed protein): 0.12
256818_at, Cluster 7
  Fold-change of gene AT3G21420 (oxidoreductase, 2OG-Fe(II) oxygenase family protein): 1.29
257066_at, Cluster 5
  Fold-change of gene AT3G18280 (protease inhibitor/seed storage/lipid transfer protein): 0.92
257506_at, Cluster 6
  Fold-change of gene AT1G29440 (auxin-responsive family protein): 0.34
257746_at, Cluster 5
  Fold-change of gene AT3G29200 (chorismate mutase, chloroplast (CM1)): 0.66
259364_at, Cluster 8
  Fold-change of gene AT1G13260 (DNA-binding protein RAV1 (RAV1)): 0.67
259773_at, Cluster 6
  Fold-change of gene AT1G29500 (auxin-responsive protein): 0.39
259783_at, Cluster 6
  Fold-change of gene AT1G29510 (auxin-responsive protein): 0.36
259784_at, Cluster 6
  Fold-change of gene AT1G29450 (auxin-responsive protein): 0.37
259787_at, Cluster 6
  Fold-change of gene AT1G29460 (auxin-responsive protein): 0.28
259875_s_at, Cluster 7
  Fold-change of gene AT1G76690; AT1G76680 ([AT1G76690, 12-oxophytodienoate reductase (OPR2)): 0.89
259985_at, Cluster 8
  Fold-change of gene AT1G76620 (expressed protein): 0.37
260243_at, Cluster 10
  Fold-change of gene AT1G63720 (expressed protein): 0.17
260727_at, Cluster 8
  Fold-change of gene AT1G48100 (glycoside hydrolase family 28 protein): 1.16
261023_at, Cluster 7
  Fold-change of gene AT1G12200 (flavin-containing monooxygenase family protein): 1.40
261203_at, Cluster 6
  Fold-change of gene AT1G12845 (expressed protein): 0.47
261768_at, Cluster 6
  Fold-change of gene AT1G15550 (gibberellin 3-beta-dioxygenase): 0.52
261892_at, Cluster 9
  Fold-change of gene AT1G80840 (WRKY family transcription factor): 0.05
262040_at, Cluster 6
  Fold-change of gene AT1G80080 (leucine-rich repeat family protein): 0.39
262050_at, Cluster 8
  Fold-change of gene AT1G80130 (expressed protein): 0.36
262505_at, Cluster 10
  Fold-change of gene AT1G21680 (expressed protein): 1.29
262543_at, Cluster 6
  Fold-change of gene AT1G34245 (expressed protein): 0.67
263126_at, Cluster 7
  Fold-change of gene AT1G78460 (SOUL heme-binding family protein): 1.49
264279_s_at, Cluster 7
  Fold-change of gene AT1G78820; AT1G78830 ([AT1G78820, curculin-like (mannose-binding) lectin family protein): 0.86
265877_at, Cluster 6
  Fold-change of gene AT2G42380 (bZIP transcription factor family protein): 0.39
266124_at, Cluster 8
  Fold-change of gene AT2G45080 (cyclin family protein): 0.27
